Our source for the GI50 and TGI values is PubChem BioAssay (NCI).

Test in all cases: NCI anticancer screen, dose series, 48 h
Assay [1] concerns NCI-H460 lung.
For assay [2], the system named is SR leukemia.
For assay [3], the system named is OVCAR-5 ovarian.
The test system of assay [4] is UO-31 renal.
In assay [5] the test system is CAKI-1 renal.
Assay [6] has as its system 786-0 renal.
The subject of assay [7] is COLO 205 colon.
Assay [8] has as its system SF-295 CNS.
Assay [9] has as its system NCI/ADR-RES ovarian.
Assay [10] concerns IGROV1 ovarian.

Several values for one entry are separate records, joined by “and”; a condition that tells them apart may be missing. Identical values can stand only once.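 How tested: cells in 96-well plates exposed to compound for 48 hours at five concentrations. The concentration for 50% growth inhibition is given as GI50. TGI denotes the concentration required for complete inhibition of growth.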 *1 amine or outer side, *2 acyl side, *3 side chain or, on linkers, in order; H or OH if unused. Where a SMILES comes first, the peptide text is derived from it. Bridges are numbered along the chain shown (N, C = ends). [ ]: non-standard residue; d: D form. The star is where a group is joined. X19 = O=C([C@H](N[*:1])c1ccc(O[C@H]2O[C@@H](CO)[C@@H](O)[C@@H](O)[C@H]2O[C@@H]2O[C@H](CO)[C@H](O)[C@H](O)[C@@H]2O)cc1)[*:2]; X18 = NC(=O)[C@@H](O[*:3])[C@H](N[*:1])C(=O)[*:2]; X20 = O=C([C@H](N[*:1])c1ccc(O)c(Cl)c1)[*:2]; d(aThr) = C[C@@H](O)[C@@H](N)C(=O)O; dHpg = N[C@@H](C(=O)O)c1ccc(O)cc1; X17 = CC(C)C/C=C/C=C/C(=O)*; dOrn = NCCC[C@@H](N)C(=O)O

Consider `COc1cc2c(Nc3ccc(Br)cc3F)ncnc2cc1OCC1CCN(C)CC1`, for which the GI50 in [1] is 4.69 µM and 9.98 µM; in assay [2] it was 2.55 µM and 2.89 µM; in [3], 2.65 µM and 3.23 µM; in [4], 0.573 µM and 0.479 µM; in assay [5], 0.729 µM and 1.28 µM; in [6] it was 2.96 µM and 3.01 µM. Also, the GI50 in assay [7] was 3.6 µM and 4.33 µM; in assay [8] it was 5.39 µM and > 10 µM; in [9], 5.58 µM and > 10 µM; in assay [10], 0.408 µM and 0.398 µM. Besides, the TGI in [1] was 17 µM and > 10 µM; in assay [2] it was 8.29 µM and > 10 µM; in assay [3] it was 18.7 µM and > 10 µM; in [4], 2.5 µM and 5.78 µM; in [5], 5.24 µM and > 10 µM; in assay [6], 13.1 µM and > 10 µM. Further, the TGI in [7] was 9.88 µM and > 10 µM; in assay [8], 15.3 µM and > 10 µM; in assay [9], 19.1 µM and > 10 µM; in assay [10], 3.61 µM and 5.27 µM.

For `NC(=O)c1cc(Cl)ccc1NC(=O)c1ccccc1-c1ccccc1`, the GI50 in assay [1] was 0.453 µM; in [2] it was 0.439 µM; in [3], 4.12 µM; in [4], 1.97 µM; in [5], 0.735 µM; in [6], 0.479 µM. Also, the GI50 is 0.923 µM in assay [7], 0.347 µM in assay [8], 0.459 µM in [9] and 1.55 µM in [10]. For the same compound, the TGI in assay [1] is 28.7 µM; in [2] it was 63 µM; in assay [3], 79.1 µM; in assay [4], over 100 µM; in [5] it was 64.3 µM; in assay [6], 17.9 µM. Moreover, the TGI in assay [7] was 5.52 µM; in [8] it was 15.9 µM; in assay [9], 26.4 µM; in assay [10] it was over 100 µM.

Consider `C[C@@H](Oc1cc(NS(=O)(=O)N2CCC2)nc(SCc2cccc(F)c2F)n1)[C@@H](O)CO`, for which the GI50 in assay [1], in assay [2], in assay [3], in [4], in assay [5] and in assay [6] was over 100 µM throughout. Further, the GI50 in assay [7], in assay [8], in assay [9] and in [10] was over 100 µM in each case. Moreover, the TGI in assay [1], in assay [2], in [3], in assay [4], in assay [5] and in assay [6] was over 100 µM throughout. The TGI in assay [7], in [8], in assay [9] and in [10] was over 100 µM throughout.

With `N=C1C(c2nc3ccccc3s2)=C(O)CN1c1ccc(Cl)cc1Cl`, the GI50 in assay [1] is 33.4 µM; in [2], 1.49 µM; in [3], 34.8 µM; in assay [4], 1.63 µM; in assay [5], 3.27 µM; in [6], 16.9 µM. For the same compound, the GI50 was 36.6 µM in assay [7], 12.7 µM in assay [8], 13.5 µM in assay [9] and 19.4 µM in assay [10]. Also, the TGI in assay [1] was over 100 µM; in assay [2] it was 34.6 µM; in assay [3], over 100 µM; in assay [4], 3.62 µM; in assay [5], 20.3 µM; in [6], 48.2 µM. Further, the TGI in assay [7] is over 100 µM; in assay [8], 52.4 µM; in [9] it was 37.4 µM; in assay [10], 46.9 µM.

As to `N#Cc1nn(C2OC(COC(=O)c3ccccc3)C(OC(=O)c3ccccc3)C2OC(=O)c2ccccc2)c2nc[nH]c(=O)c12` (stereo not given), the TGI is over 100 µM in assay [1]; 94.4 µM in assay [2]; over 100 µM in assay [3]; over 100 µM in assay [4]; over 100 µM in assay [5]; over 100 µM in assay [6]. Moreover, the TGI in [7], in [8], in assay [9] and in assay [10] was over 100 µM in each case.

Turning to `O=C1/C(=C/c2ccccc2)CN(CCC(=O)N2C/C(=C\c3ccccc3)C(=O)/C(=C/c3ccccc3)C2)C/C1=C\c1ccccc1`, the GI50 is 35.9 µM in assay [1]; 0.295 µM in assay [2]; 33.1 µM in [3]; 7.51 µM in assay [4]; 8.5 µM in [5]; 9.8 µM in assay [6]. In addition, the GI50 in assay [7] was 12.4 µM; in assay [8], 14.2 µM; in assay [9], 12.1 µM; in assay [10], 5.19 µM. Besides, the TGI in [1] was over 100 µM; in assay [2] it was over 100 µM; in assay [3], over 91.3 µM; in assay [4] it was 21.7 µM; in assay [5], 41.1 µM; in assay [6], 32.9 µM. For the same compound, the TGI in assay [7] was over 67.5 µM; in [8] it was 30 µM; in assay [9] it was over 76 µM; in assay [10], 21.9 µM.

Turning to `CC(C)C/C=C/C=C/C(=O)N[C@@H](CC(N)=O)C(=O)N[C@@H]1C(=O)N[C@H](c2ccc(O)cc2)C(=O)N[C@H](CCCN)C(=O)N[C@H]([C@@H](C)O)C(=O)N[C@H](c2ccc(O)cc2)C(=O)N[C@H](c2ccc(O)cc2)C(=O)N[C@H]([C@H](C)O)C(=O)N[C@H](Cc2ccccc2)C(=O)N[C@H](CCCN)C(=O)N[C@H](c2ccc(O[C@H]3O[C@@H](CO)[C@@H](O)[C@@H](O)[C@H]3O[C@@H]3O[C@H](CO)[C@H](O)[C@H](O)[C@@H]3O)cc2)C(=O)N[C@H]([C@H](C)O)C(=O)N[C@H](c2ccc(O)cc2)C(=O)NCC(=O)N[C@H](CC(C)C)C(=O)N[C@H](C)C(=O)N[C@H](c2ccc(O)c(Cl)c2)C(=O)O[C@@H]1C(N)=O` (X17-N[X18][dHpg][dOrn][d(aThr)][dHpg][dHpg][dT][dF][dOrn][X19][dT][dHpg]G[dL][dA][X20]; ester 2-C), the GI50 in assay [1] is 23.5 µM; in assay [2], over 100 µM; in assay [3], 27 µM; in assay [4], over 100 µM; in assay [5], over 100 µM; in assay [6] it was 25 µM. Moreover, the GI50 in assay [7] is 37.8 µM; in [8], 15.8 µM; in assay [9] it was 39.5 µM; in assay [10], over 100 µM. For the same compound, the TGI in [1] was 66.9 µM; in [2], over 100 µM; in [3], 63.5 µM; in [4] it was over 100 µM; in assay [5], over 100 µM; in assay [6], 56.7 µM. Further, the TGI in assay [7] was over 100 µM; in [8], 46.1 µM; in assay [9], over 100 µM; in [10], over 100 µM.
